Source: US9862716B2, “TRKA kinase inhibitors, compositions and methods thereof” (Merck Sharp & Dohme Corp., priority 2014, dated 2018)

Molecular target: T1, human TrkA receptor (Homo sapiens, UniProt P04629)
T1 construct: host or cells: U2OS cells (PathHunter cell line)
Test: DiscoverX PathHunter TrkA functional assay (NGF-stimulated U2OS cells)
Assay type: cell-based
Conditions: U2OS cells expressing human TrkA-PK, Shc1-EA and p75NTR; compound 1 h, then NGF at ~80% of maximal response for 3 h; luminescence
Protocol: TrkA functional activity was measured using a DiscoverX PathHunter assay. In this assay, U2OS cells express the human TrkA receptor as a fusion with the weakly complementing fragment of B-galactosidase, which DiscoverX calls “Prolink (PK)”; additionally, Shc1 is fused with a larger fragment, which is called “Enzyme Acceptor (EA)”. Activation of the TrkA receptor, upon NGF addition, results in the kinase domain being phosphorylated, resulting in subsequent recruitment of Shc1-EA protein. That recruitment results in an active B-galactosidase enzyme that is detected by addition of a chemiluminescent substrate. The human p75^NTR protein was also expressed as a co-receptor for NGF.
All reagents were purchased from DiscoverX, except for the receptor agonists (NGF, BDNF, NT3) which were purchased from Peprotech. Cells were expanded and frozen into cryovials, and stored in the vapor phase of liquid nitrogen, and thawed immediately before use. Thawed cells were added to a 384-well plate at 7500 cells/well, and allowed to incubate overnight. Compound at various concentrations was added the following morning and allowed to incubate on cells for 1 h. Then, NGF was added at a concentration sufficient to elicit ˜80% of a maximal response and allowed to incubate for 3 h at ambient temperature. DiscoverX PathHunter detection reagent was then added and the plate was further incubated for 1 h in the dark. The plate was then read via luminescence on the Perkin Elmer Envision.

T1 sequence (P04629 33-796): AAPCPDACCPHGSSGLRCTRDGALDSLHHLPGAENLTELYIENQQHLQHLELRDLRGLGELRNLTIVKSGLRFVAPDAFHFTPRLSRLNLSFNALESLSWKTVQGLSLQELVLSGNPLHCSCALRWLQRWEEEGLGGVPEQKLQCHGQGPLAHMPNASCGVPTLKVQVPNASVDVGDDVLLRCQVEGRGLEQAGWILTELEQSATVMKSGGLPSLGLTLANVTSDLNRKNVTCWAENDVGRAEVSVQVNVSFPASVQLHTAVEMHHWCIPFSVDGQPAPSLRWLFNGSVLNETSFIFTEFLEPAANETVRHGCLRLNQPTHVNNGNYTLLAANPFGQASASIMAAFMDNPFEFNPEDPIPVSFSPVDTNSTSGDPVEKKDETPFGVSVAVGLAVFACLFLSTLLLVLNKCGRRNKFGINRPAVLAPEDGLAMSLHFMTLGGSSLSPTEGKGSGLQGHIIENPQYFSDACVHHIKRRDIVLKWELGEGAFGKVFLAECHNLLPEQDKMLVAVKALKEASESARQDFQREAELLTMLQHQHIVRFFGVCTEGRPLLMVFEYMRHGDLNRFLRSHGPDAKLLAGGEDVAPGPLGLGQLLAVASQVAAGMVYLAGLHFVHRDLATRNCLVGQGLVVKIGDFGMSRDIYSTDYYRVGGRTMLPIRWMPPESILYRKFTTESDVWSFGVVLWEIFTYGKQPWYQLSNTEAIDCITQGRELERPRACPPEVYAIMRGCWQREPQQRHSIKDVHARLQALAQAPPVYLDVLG

## Cn1ccc(-c2cc(C(=O)Nc3c(-c4ccccc4)nc4ccc(CN5CC(F)C5)cn34)ccc2C(F)(F)F)n1 [Compound 47, N-{6-[(3-fluoroazetidin-1-yl)methyl]-2-phenylimidazo[1,2-a]pyridin-3-yl}-3-(1-methyl-1H-pyrazol-3-yl)-4-(trifluoromethyl) benzamide]
  IC50: 8.8 nM
